Results taken from PMC7613515, “Reading and erasing of the phosphonium analogue of trimethyllysine by epigenetic proteins” (Communications Chemistry, 2022).

Tests used:
four of the readers = assay: ITC, reader domains taken together; type: binding, human; conditions: four of the five readers
Excerpt: (§1) We investigated the thermodynamics of association of the H3KP4me3 peptide with five representative human reader domains containing either a PHD zinc finger or TTD, i.e. KDM5APHD3 (JARID1A-PHD3, residues M1489–V1641)[10], TAF3PHD (R857–K924)[22], BPTFPHD (L2583–N2751)[23], SGF29TTD (R115–K293)[24] and KDM4ATTD (JMJD2A, Q897-P1011)[25], selected on the basis of their preference for binding Ν^ε-trimethyllysine over other (non)methylation marks (Kme0 < Kme1 < Kme2 < Kme3), and their domain and aromatic cage diversity. The recombinant readers were produced in E. coli following reported procedures. Isothermal titration calorimetric (ITC) analyses were used to determine the dissociation constant (Kd), the Gibbs free energy of binding (ΔG°), the enthalpy of binding (ΔH°), and the entropy of binding (ΔS°). […] (Table 1, Fig. 2, Supplementary Fig. 1).
(§2) ITC studies followed a reported procedure. […] Histone peptide titrations were performed with the same reader batches. Solutions of the reader in buffer (25–40 µM) and of the histone H3 peptide (350–600 µM) in buffer were prepared. […] Heats of dilution for histone peptides determined in control experiments were subtracted from the titration binding data. Data were analysed with Origin 6.0 (Microcal Inc., Northampton, Massachusetts, USA) and curve fitting with one-site binding mode was applied.

TAF3PHD (R857–K924) = target: T1, TAF3PHD (R857–K924) (Mus musculus, UniProt Q5HZG4); assay: ITC, association of histone H3 peptides with TAF3PHD; type: binding, human; conditions: 25 °C, H3 1-10 peptide, Tris (50 mM), pH 7.5, from 3 to 5 experiments, ± SD
T1 construct: TAF3PHD (R857–K924); made in house; host or cells: E. coli
T1 sequence (Q5HZG4 857-924 limits assumed): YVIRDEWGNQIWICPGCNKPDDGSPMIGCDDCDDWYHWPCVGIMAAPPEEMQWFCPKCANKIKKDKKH
Excerpt: as §1
The following purified reader domains: TAF3PHD (R857-K924), KDM5APHD3 (JARID1A, M1489-V1641), BPTFPHD (L2583-N2751), KDM4ATTD (JMJD2A, Q897-P1011) and SGF29TTD (R115-K293) were prepared as reported[10],[22]–[26]. The histone lysine demethylase were produced and purified to high purity via reported procedures KDM3A (JMJD1A, T515-S1317)[41], KDM4AJmjC[39] (JMJD2A, M1-L359), KDM4EJmjC (JMJD2E, M1–Q337)[34] and KDM7B[40] (PHF8, M37-N483 [NP_001171]). KDM5DJmjC was produced using an N-terminal hexa-His tagged KDM4D (KDM4DM1-L358) DNA construct, transformed into BL21(DE3) competent cells for recombinant protein production. Colonies were used to inoculate of LB media (50 mL) containing kanamycin (50 µg·mL^−1) and chloramphenicol (34 µg·mL^−1), which was placed in a 37 °C shaker overnight. The starter culture (10 mL) was used to inoculate TB media (6 × 1 L) containing kanamycin (50 µg·mL^−1) in 2 L baffled shaker flasks. After reaching an of OD600 of ~0.8, the temperature was reduced to 18 °C; at OD600 ~0.9 the cells were induced by the IPTG (0.5 mM) addition. After shaking overnight, the culture was centrifuged (5000 rpm, 10 mins), the media was decanted, and the cell pellet was suspended in Lysis Buffer [HEPES (50 mM), NaCl (500 mM), imidazole (20 mM), glycerol (5%) and TCEP (0.5 mM) in water (pH 7.4)]. The suspension was lysed by passaging through a high-pressure cell breaker (Avestin – EmulsiFlex-C5) for three rounds. The lysate was cleared by centrifugation (60 minutes, 36,000 × g, 4 °C), then loaded onto a Ni NTA gravity column. […]
as §2, with “Data were analysed with Origin 6.0 (Microcal Inc., Northampton, Massachusetts, USA) and curve fitting with one-site binding mode was applied.” left out

[1] = cited from earlier work
Excerpt: Some JmjC KDMs can also catalyse N-methyl arginine demethylation and with appropriately sized N^ε-substitutions some can catalyse forma ...

Compound | binding relative to H3K4me3 (four of the readers) | -TΔS° (TAF3PHD (R857–K924)) [kcal/mol] | ΔG° (TAF3PHD (R857–K924)) [kcal/mol] | ΔH° (TAF3PHD (R857–K924)) [kcal/mol] | bond length (C-P or C-N) ([1]; C-P bond in H3KP4me3, C-N bond in H3K4me3) [Å] | volume difference Δ[^+Pme4-^+Nme4] ([1]; H3KP9me3 compared to H3K9me3) [Å^3]
C[C@H](N)C(=O)N[C@@H](CCCNC(=N)N)C(=O)N[C@H](C(=O)N[C@@H](CCCC[P+](C)(C)C)C(=O)N[C@@H](CCC(N)=O)C(=O)N[C@H](C(=O)N[C@@H](C)C(=O)N[C@@H](CCCNC(=N)N)C(=O)N[C@@H](CCCCN)C(=O)N[C@@H](CO)C(N)=O)[C@@H](C)O)[C@@H](C)O [H3KP4me3] | stronger complex formation than with H3K4me3 | 1.1 ± 0.1 | -10.0 ± 0.1 | -11.1 ± 0.1 | 1.87 | 
ARTKQTAR(KPme3)STGGKA [H3KP9me3, histone H3 residues 1–15 with trimethylphosphonium lysine analogue at position 9] |  |  |  |  |  | 10
